Here are results for nine molecules from paper PMC11879280, “Antimicrobial activity of peptoids against Metallo-β-lactamase-producing Klebsiella pneumoniae, Acinetobacter baumannii, Pseudomonas aeruginosa, and other WHO priority pathogens, including Candida auris” (Journal of Applied Microbiology, 2025).

Where only a bound is given, the exact number is not on record here.

The term MIC denotes the lowest concentration that inhibits growth of the organism.

One assay relates to C. auris CBS 10913. The experiment in a line: Sorbitol protection assay. The note with it: C. auris CBS 10913; sorbitol 0.8 mol l^−1 in RPMI, till 7 days. Format: cell-based, Candida auris. The source says: Caspofungin served as a positive control for the assay (Leite et al. [2014]).
Another assay has as its system C. auris CBS12373. The experiment in a line: Broth microdilution MIC. Format: cell-based, Candida auris. To be noted: CBS 12 373; RPMI 1640 with MOPS, 5 × 10^3 CFU ml^−1; ≥90% reduction (≥50% for fluconazole). A general note: Dilution methods test growth across graded concentrations, often in twofold steps.
For a further assay, the system named is S. aureus 04. To be noted: S. aureus 04; CAMHB, 37°C, 16–20 h. As for the experimental part: (§1) Briefly, bacteria were suspended in cation-adjusted Mueller–Hinton broth (CAMHB; Oxoid, UK) for antibiotics, or MHB (Oxoid, UK) for peptidomimetics to obtain 5 × 10^5 colony forming unit (CFU) ml^−1. […] Positive controls contained only microbes, and blanks contained only media. Microbial suspensions (100 µl) were added to wells, plates wrapped, and incubated at 37°C, 120 rpm for 16–20 h. After incubation, suspensions were removed, log10 diluted, and plated on Trypticase Soya Agar with phosphatidylcholine and Tween 80 to determine minimum bactericidal or fungicidal concentration (MBC or MFC). […] Geometric mean MIC of the peptoids were calculated to evaluate the broad overview of antimicrobial activity across the pathogens.

Another assay relates to S. aureus 117. The note with it: S. aureus 117; CAMHB, 37°C, 16–20 h. As for the experimental part: as §1
A further assay concerns S. aureus 38. The note with it: S. aureus 38; CAMHB, 37°C, 16–20 h. As for the experimental part: as §1
For the next assay, the system named is S. aureus 105. The note with it: S. aureus 105; CAMHB, 37°C, 16–20 h. As for the experimental part:
as §1

Another assay has as its system K. pneumoniae JIE2713. The note with it: K. pneumoniae JIE2713; CAMHB, 37°C, 16–20 h. As for the experimental part: as §1
The subject of assay [1] is K. pneumoniae JIE2709. The note with it: K. pneumoniae JIE2709; CAMHB, 37°C, 16–20 h. Here is the method:
as §1

The subject of the next assay is En. cloacae 003. The note with it: En. cloacae 003; CAMHB, 37°C, 16–20 h. As for the experimental part: as §1
In another assay the test system is E. coli 0015. The note with it: E. coli 0015; CAMHB, 37°C, 16–20 h. Here is the method: as §1
Another assay relates to E. coli 0011. The note with it: E. coli 0011; CAMHB, 37°C, 16–20 h. As for the experimental part:
as §1

In the next assay the test system is En. cloacae 005. To be noted: En. cloacae 005; CAMHB, 37°C, 16–20 h. Here is the method:
as §1

The test system of the next assay is En. cloacae 001. The note with it: En. cloacae 001; CAMHB, 37°C, 16–20 h. As for the experimental part: as §1
The next assay deals with K. pneumoniae JIE4212. To be noted: K. pneumoniae JIE4212; CAMHB, 37°C, 16–20 h. Here is the method:
as §1

Assay [2] deals with Enteroc. faecalis NCTC 13 379. The note with it: Enteroc. faecalis NCTC 13 379; CAMHB, 37°C, 16–20 h. As for the experimental part:
as §1

For another assay, the system named is E. coli 005. The note with it: E. coli 005; CAMHB, 37°C, 16–20 h. As for the experimental part:
as §1

In a further assay the test system is E. coli 0010. To be noted: E. coli 0010; CAMHB, 37°C, 16–20 h. As for the experimental part: as §1
The subject of assay [3] is K. pneumoniae JIE2709. In words: Checkerboard microdilution synergy test. Format: cell-based, Klebsiella pneumoniae. As for the experimental part:
Then, 10 µl of bacteria (5 × 10^6 CFU ml^−1) or C. auris (2.5 × 10^4 CFU ml^−1) were added to each well, except for the sterility control well. […] The sterility control wells contained only MHB (or RPMI in case of C. auris), and the growth control contained 110 µl of microbial inoculum with no antimicrobials. Subsequently, the plates were incubated for 18- 24 hours at 36 ± 1 °C.
The FIC for each combination interaction was calculated as follows:
Then, the summation of FIC (ƩFIC) was calculated for each antimicrobial combination as follows: ƩFIC = FICA + FICB. […] All antimicrobial synergy experiments were repeated in at least two independent runs.

A further assay deals with P. aeruginosa 216. The note with it: P. aeruginosa 216; CAMHB, 37°C, 16–20 h. As for the experimental part:
as §1

The subject of a further assay is A. baumannii 008. To be noted: A. baumannii 008; CAMHB, 37°C, 16–20 h. Here is the method:
as §1

The next assay relates to A. baumannii ATCC 19 606. To be noted: A. baumannii ATCC 19 606; CAMHB, 37°C, 16–20 h. Here is the method:
as §1

The next assay relates to A. baumannii 005. The note with it: A. baumannii 005; CAMHB, 37°C, 16–20 h. As for the experimental part:
as §1

The next assay has as its system P. aeruginosa 33. The note with it: P. aeruginosa 33; CAMHB, 37°C, 16–20 h. Here is the method:
as §1

The test system of a further assay is P. aeruginosa AR-1270. To be noted: P. aeruginosa AR-1270; CAMHB, 37°C, 16–20 h. As for the experimental part:
as §1

The test system of another assay is A. baumannii 006. To be noted: A. baumannii 006; CAMHB, 37°C, 16–20 h. As for the experimental part:
as §1

In a further assay the test system is A. baumannii 007. The note with it: A. baumannii 007; CAMHB, 37°C, 16–20 h. Here is the method: as §1
In the next assay the test system is C. auris CBS10913. In words: Membrane integrity by flow cytometry (SYTO 9 / PI). The note with it: TM8 at its MIC or 1% Triton X-100, 90 min; PBS control 0.2%. Format: cell-based, Candida auris. Here is the method: Afterwards, the cells were stained with SYTO 9 (7.5 µmol l^−1) and PI (30 µmol l^−1) for an additional 15 min in the dark at room temperature. Following washing, samples were then analysed for membrane integrity on a BD FACSymphony^TM A3, with a minimum of 10 000 events recorded per sample.
In general terms: Flow cytometry measures light scatter and fluorescence of single cells or particles in a stream.

As to `CC[C@H](C)C[C@H](C)CCCCCCCCC(=O)N[C@H]1C[C@@H](O)[C@@H](NCCN)NC(=O)[C@@H]2[C@@H](O)CCN2C(=O)[C@H]([C@H](O)CCN)NC(=O)[C@H]([C@H](O)[C@@H](O)c2ccc(O)cc2)NC(=O)[C@@H]2C[C@@H](O)CN2C(=O)[C@H]([C@@H](C)O)NC1=O` [Caspofungin, reference compound], the “MIC in the presence of sorbitol” value in the assay with C. auris CBS 10913 came to 1 µg/mL. Besides, in the assay on C. auris CBS12373, the “MIC against C. auris” value is 0.25 (228.7) µg ml^−1.
Take `CO/N=C(\C(=O)N[C@@H]1C(=O)N2C(C(=O)O)=C(COC(C)=O)CS[C@H]12)c1csc(N)n1` [Cefox, cefotaxime, reference compound]: the MIC of antibiotics in the assay with S. aureus 04 came to 0.5 µg/mL; in the assay on S. aureus 117, 0.5 µg/mL; in the assay with S. aureus 38, 0.5 µg/mL; in the assay with S. aureus 105 it was 16 µg/mL.
Regarding `O=C(N[C@H](CO)[C@H](O)c1ccc([N+](=O)[O-])cc1)C(Cl)Cl` [Chl, chloramphenicol, reference compound], the MIC of antibiotics in the assay on K. pneumoniae JIE2713 was 32 µg/mL; with K. pneumoniae JIE2709 [1] it was >32 µg/mL; in the assay on En. cloacae 003 it was 32 µg/mL; in the assay on S. aureus 04, 2 µg/mL; in the assay with S. aureus 117 it was 4 µg/mL; in the assay with S. aureus 38 it was 4 µg/mL. In addition, the MIC of antibiotics with E. coli 0015 stood at 2 µg/mL; in the assay with E. coli 0011, 1 µg/mL; in the assay on En. cloacae 005, 32 µg/mL; in the assay with En. cloacae 001, 32 µg/mL; with K. pneumoniae JIE4212, 32 µg/mL; in the assay on S. aureus 105, 32 µg/mL. The MIC of antibiotics stood at 64 µg/mL in assay [2], 8 µg/mL in the assay with E. coli 005 and 8 µg/mL in the assay on E. coli 0010.
In the case of `CC[C@H]1OC(=O)[C@H](C)[C@@H](O[C@H]2C[C@@](C)(OC)[C@@H](O)[C@H](C)O2)[C@H](C)[C@@H](O[C@@H]2O[C@H](C)C[C@H](N(C)C)[C@H]2O)[C@](C)(O)C[C@@H](C)C(=O)[C@H](C)[C@@H](O)[C@]1(C)O` [Ery, erythromycin, reference compound], the MIC of antibiotics was determined as 0.5 µg/mL in the assay with S. aureus 04; 1 µg/mL in the assay on S. aureus 117; 1 µg/mL with S. aureus 38; 32 µg/mL in the assay on S. aureus 105; 4 µg/mL in assay [2].
On to `C[C@@H](O)[C@H]1C(=O)N2C(C(=O)O)=C(S[C@@H]3CN[C@H](C(=O)N(C)C)C3)[C@H](C)[C@H]12` [Mer, meropenem, reference compound], for which the minimal inhibitory concentration (MIC) in the assay with K. pneumoniae JIE2709 [3] (Klebsiella pneumoniae, read-out: MIC of DrugB (alone, checkerboard)) came to 32 µg/mL. Besides, the FICDrugB with K. pneumoniae JIE2709 [3] (in combination with TM8) is 0.125. Moreover, in the assay on K. pneumoniae JIE2709 [3] (in combination with TM8), the “MF of antibiotic (modulation factor)” value was determined as 8. The “MIC of DrugB + TM8” value with K. pneumoniae JIE2709 [3] (in combination with TM8) stood at 4 µg/mL. For the same molecule, the MIC of antibiotics in the assay with P. aeruginosa 216 is 1 µg/mL; in the assay with A. baumannii 008, 64 µg/mL; in the assay with K. pneumoniae JIE2713, >64 µg/mL; in the assay with K. pneumoniae JIE2709 [1], 32 µg/mL; with A. baumannii ATCC 19 606 it was 0.5 µg/mL; in the assay on En. cloacae 003, 1 µg/mL. Besides, the MIC of antibiotics with A. baumannii 005 is >64 µg/mL; in the assay on E. coli 0015 it was 2 µg/mL; in the assay on E. coli 0011, 1 µg/mL; with P. aeruginosa 33, 4 µg/mL; in the assay with P. aeruginosa AR-1270, >64 µg/mL; in the assay on A. baumannii 006, 64 µg/mL. Besides, the MIC of antibiotics in the assay with En. cloacae 005 was 0.25 µg/mL; in the assay on En. cloacae 001, 1 µg/mL; with K. pneumoniae JIE4212 it was 1 µg/mL; in the assay on A. baumannii 007, 64 µg/mL; in the assay on E. coli 005, 2 µg/mL; in the assay with E. coli 0010, 2 µg/mL.
Regarding `CN(C)c1ccc(O)c2c1C[C@H]1C[C@H]3[C@H](N(C)C)C(O)=C(C(N)=O)C(=O)[C@@]3(O)C(O)=C1C2=O` [Min, minocycline, reference compound], the MIC of antibiotics in the assay on S. aureus 04 was 0.25 µg/mL; in the assay on S. aureus 117 it was 0.5 µg/mL; in the assay with S. aureus 38 it was 0.5 µg/mL; with S. aureus 105, 16 µg/mL; in assay [2], 0.5 µg/mL.
Turning to `CN[C@H](CC(C)C)C(=O)N[C@H]1C(=O)N[C@@H](CC(N)=O)C(=O)N[C@H]2C(=O)N[C@H]3C(=O)N[C@H](C(=O)N[C@H](C(=O)O)c4cc(O)cc(O)c4-c4cc3ccc4O)[C@H](O)c3ccc(c(Cl)c3)Oc3cc2cc(c3O[C@@H]2O[C@H](CO)[C@@H](O)[C@H](O)[C@H]2O[C@H]2C[C@](C)(N)[C@H](O)[C@H](C)O2)Oc2ccc(cc2Cl)[C@H]1O` [Van, vancomycin, reference compound], the MIC of antibiotics stood at 1 µg/mL in the assay with S. aureus 04; 4 µg/mL in the assay with S. aureus 117; 1 µg/mL in the assay with S. aureus 38; 1 µg/mL with S. aureus 105; 32 µg/mL in assay [2].
Consider Triton X-100 [reference compound], for which, in the assay on C. auris CBS10913, the Dead cells came out at 27.3%.
With penicillin [reference compound], the MIC of antibiotics in the assay on S. aureus 04 stood at 16 µg/mL; in the assay with S. aureus 117 it was 16 µg/mL; in the assay with S. aureus 38 it was 16 µg/mL; with S. aureus 105, 32 µg/mL; in assay [2] it was 4 µg/mL.
